Bridge positions count the residues as written; N and C are the ends. Ends that are not written are not given here.
Assays:
NEP24.11 = NEP24.11 (Homo sapiens, UniProt P08473); assay: Tolerance of GLP-1 and its analogues to NEP24.11 (RP-HPLC remaining peak area); assay type: in vitro ADME; details: after 8 hours
Method: (§1) Mix by centrifugation at 8000 rpm for 30 seconds.
Arrange a certain volume of 0.04 μg/μL NEP24.11 enzyme solution in another sterile EP.

elastase = elastase (Sus scrofa, UniProt P00772); assay: Stability of hybrid peptides (GLP-1, PCSK9, calcitonin, 17A analogues) against elastase hydrolysis (RP-HPLC remaining peak area); details: 30.0 min; peptide 60 μM, elastase 10 ng/μL, 37° C.
Method: FIG. 19. […] At different time point, 25 μL aliquots was taken out, and 10% (v/v) TFA was added to terminate the reaction.
as §1
Arrange a certain volume of 0.5 μg/μL elastase solution in another sterile EP. Incubate the EP tubes containing peptides and enzymes at 37° C. for 5 min, and then add 4.5 μL of elastase solution to each EP tube containing peptides and mix well. Start timing and remove 25 μL of reaction solution at 1.5, 3.0, 4.5, 6.0, 9.0, 15.0, 30.0, and 60.0 min later, respectively. Add 3.75 μL of 10% TFA to terminate the reaction and mix well by centrifugation at 8000 rpm for 30 seconds.
Referring to the experimental method in Example 5, in vitro stability of salmon Calcitonin analogs with oral administration activity to the enzymatic hydrolysis by trypsin, chymotrypsin and elastase were performed.
Referring to the experimental method in Example 5, in vitro stability of IL-17A inhibitory peptides towards the enzymatic hydrolysis by trypsin, chymotrypsin and elastase were performed.

chymotrypsin = chymotrypsin (Bos taurus, UniProt P00766); assay: Stability of hybrid peptides (GLP-1, PCSK9, calcitonin, 17A analogues) against chymotrypsin hydrolysis (RP-HPLC remaining peak area)
Method in brief: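 Peptide and 0.05 μg/μL chymotrypsin were preincubated at 37 °C for 5 min, then mixed. Aliquots taken from 1.5 up to 60.0 min were quenched with 10% TFA, and remaining peptide was measured as RP-HPLC peak area.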

[1] = test system: P407-induced hyperlipidemia mice; assay: Subcutaneous injection of PCSK9 inhibitory peptide, serum total cholesterol in P407-induced hyperlipidemia mice; assay type: in vivo, mouse; details: for TC 15 min / TC 30 min / TC 60 min / TC 90 min / TC 120 min: serum, subcutaneous 2 μmol/kg, mean ± sd; for TC 15 min: 15 min after administration; for TC 30 min: 30 min after administration; for TC 60 min: 60 min after administration; for TC 90 min: 90 min after administration; for serum total cholesterol (TC) level after subcutaneous injection (in words): 2 μmol/kg single s.c., P407-induced hyperlipidemia mice; for TC 120 min: 120 min after administration
Method: The experimental peptide sample was prepared using PEG400 with a final concentration of […], and the final concentration of PEG400 is 20% (w/v). Normal ICR mice were fasted overnight with water ad libitum. The next day, all of the mice were randomly divided into model control group (Con) and polypeptide administration group (2 μmol/kg) according to body weight. Then, all of the mice were intraperitoneally injected with P407 (500 mg/kg) and fed with feed 2 hours later. Six mice were taken as a normal control group (Nor). After 24 hours, the mice in Con were subcutaneously injected with saline containing 20% PEG400, and the mice in the treatment group were given peptides. Then, the blood was taken at different time points after administration to determine the serum total cholesterol (TC) level. In consideration of the complexity of factors affecting serum LDL-C levels, especially the differences between single and long-term administration, the in vivo activity of PCSK9 inhibitory peptide is mainly observed for changes in serum TC levels.

[2] = target: T1, interaction of PCSK9-LDLR (Homo sapiens, UniProt Q8NBP7); assay: PCSK9-LDLR in vitro binding assay (inhibitory rate); details: for inhibitory activity on the interaction between PCSK9 and LDLR (in words): in vitro
T1 construct: purchased MBL Company, Beijing, China CY-8150
Method: Polypeptide PCSK9_1-14 (SEQ ID NOs: 210-223) is dissolved in pure water or DMSO. 85 μL reaction buffer, 5 μL 1 mM polypeptide sample and 10 μL 750 ng/mL PCSK9 protein was pre-incubated at room temperature for 20 minutes before being added to a 96 well plate. The OD450/540 nm value was measured according to the instructions of the PCSK9-LDLR in Vitro Binding Assay Kit (CY-8150, MBL Company, Beijing, China). Solvent control: replace polypeptide with 5 μL solvent. In 100 μL reaction system, the final concentration of the polypeptide and PCSK9 is 50 μM and 75 ng/mL, respectively.
Inhibition rate of polypeptide (%)=(OD450/540 nm(solvent control)−OD450/540 nm (sample))/OD450/540 nm(solvent control)×100

Sequence of NEP24.11 (P08473 whole entry): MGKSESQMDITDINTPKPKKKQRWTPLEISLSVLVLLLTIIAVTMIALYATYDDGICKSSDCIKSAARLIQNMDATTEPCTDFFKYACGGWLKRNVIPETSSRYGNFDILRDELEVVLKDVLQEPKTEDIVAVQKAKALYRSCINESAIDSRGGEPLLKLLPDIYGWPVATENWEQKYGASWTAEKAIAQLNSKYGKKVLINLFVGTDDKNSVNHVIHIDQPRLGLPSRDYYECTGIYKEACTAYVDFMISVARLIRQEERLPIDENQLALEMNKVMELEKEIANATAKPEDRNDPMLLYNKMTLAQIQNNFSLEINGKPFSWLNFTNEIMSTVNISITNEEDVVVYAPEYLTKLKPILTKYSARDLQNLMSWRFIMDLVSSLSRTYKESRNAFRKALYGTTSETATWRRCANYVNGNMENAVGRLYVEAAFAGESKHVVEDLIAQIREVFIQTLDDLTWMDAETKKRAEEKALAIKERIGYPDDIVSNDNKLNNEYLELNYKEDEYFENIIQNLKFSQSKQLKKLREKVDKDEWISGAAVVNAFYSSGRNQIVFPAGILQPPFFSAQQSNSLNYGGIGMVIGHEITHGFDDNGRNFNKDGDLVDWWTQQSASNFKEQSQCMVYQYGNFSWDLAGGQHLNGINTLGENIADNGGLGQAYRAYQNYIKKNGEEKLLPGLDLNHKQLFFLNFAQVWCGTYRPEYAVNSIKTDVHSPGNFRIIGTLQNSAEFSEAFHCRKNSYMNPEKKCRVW
Sequence of elastase (P00772 27-266): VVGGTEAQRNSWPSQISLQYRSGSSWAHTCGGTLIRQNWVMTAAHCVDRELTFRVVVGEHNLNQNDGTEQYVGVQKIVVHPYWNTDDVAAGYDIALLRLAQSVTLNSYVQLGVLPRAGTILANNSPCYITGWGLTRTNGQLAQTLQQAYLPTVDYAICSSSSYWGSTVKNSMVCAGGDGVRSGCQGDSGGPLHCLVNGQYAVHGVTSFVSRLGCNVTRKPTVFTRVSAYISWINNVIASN

Compound	TC 15 min [1]	TC 30 min [1]	TC 60 min [1]	TC 90 min [1]	inhibitory activity on the interaction between PCSK9 and LDLR (in words) [2]	also measured
CC[C@H](C)[C@H](NC(=O)[C@H](Cc1ccccc1)NC(=O)[C@H](CCC(=O)O)NC(=O)[C@H](CCCCN)NC(=O)[C@H](C)NC(=O)[C@H](C)NC(=O)[C@H](CCC(N)=O)NC(=O)CNC(=O)[C@H](CCC(=O)O)NC(=O)[C@H](CC(C)C)NC(=O)[C@H](Cc1ccc(O)cc1)NC(=O)[C@H](CO)NC(=O)[C@H](CO)NC(=O)[C@@H](NC(=O)[C@H](CC(=O)O)NC(=O)[C@H](CO)NC(=O)[C@@H](NC(=O)[C@H](Cc1ccccc1)NC(=O)[C@@H](NC(=O)CNC(=O)[C@H](CCC(=O)O)NC(=O)[C@H](C)NC(=O)[C@@H](N)Cc1c[nH]cn1)[C@@H](C)O)[C@@H](C)O)C(C)C)C(=O)N[C@@H](C)C(=O)N[C@@H](Cc1c[nH]c2ccccc12)C(=O)N[C@@H](CC(C)C)C(=O)N[C@H](C(=O)N[C@@H](CCCCN)C(=O)NCC(=O)N[C@@H](CCCN=C(N)N)C(=O)NCC(=O)O)C(C)C [GLP-1 (7-37), reference compound]						degradation by NEP24.11 (in words) (NEP24.11): almost completely degraded; Remaining peak area (%)/elastase (elastase): no GLP-1 prototype molecule was detected; stability towards chymotrypsin hydrolysis (in words) (chymotrypsin): completely degraded
CGRATKSIPPICFGTVFTSWEEALDWV (cysteine pairing not given here)	3466 ± 662 µg/mL	3490 ± 741 µg/mL	3294 ± 649 µg/mL	3265 ± 678 µg/mL	good inhibitory activity on the interaction between PCSK9 and LDLR	inhibitory activity on the interaction between PCSK9 and LDLR (in words) ([2]; listed as SEQ ID NO: 212): good inhibitory effects in vitro
ICTASIPPICQGTVFTSWEEALDWV (cysteine pairing not given here)	2885 ± 769 µg/mL	2673 ± 724 µg/mL	2695 ± 699 µg/mL	2605 ± 759 µg/mL	good inhibitory activity on the interaction between PCSK9 and LDLR	inhibitory activity on the interaction between PCSK9 and LDLR (in words) ([2]; listed as SEQ ID NO: 227): good inhibitory effects in vitro
PCSK9_8: Pep2-8 analogue containing the anti-trypsin peptide scaffold BT9 (Table 23) (TVFTSGCGRATKSIPPICFSWEEYLDWV; disulfide 7-18 (inferred))	2269 ± 489 µg/mL	2216 ± 465 µg/mL	2074 ± 470 µg/mL	2037 ± 509 µg/mL	good inhibitory activity on the interaction between PCSK9 and LDLR	inhibitory activity on the interaction between PCSK9 and LDLR (in words) ([2]; listed as SEQ ID NO: 217): good inhibitory effects in vitro
PCSK9_13: Pep2-8 analogue of Table 23 (GTNEALDNNCGRATKSIPPICFTVFTS; disulfide 10-21 (inferred))						Inhibitory rate on the interaction of PCSK9-LDLR ([2]; sample 50 μM, PCSK9 75 ng/mL): 15.8 ± 10.1%
Phe-Cys-Thr-Tyr-Ser-Ile-Pro-Pro-Gln-Cys-Tyr-Gly-Gly-Thr-Val-Phe-Thr-Ser-Trp-Glu-Glu-Ala-Leu-Asp-Trp-Val (FCTYSIPPQCYGGTVFTSWEEALDWV; disulfide 2-10 (inferred)) [PCSK9_3CH]	3509 ± 1031 µg/mL	3828 ± 774 µg/mL	3930 ± 1509 µg/mL	3435 ± 838 µg/mL	good inhibitory activity on the interaction between PCSK9 and LDLR	inhibitory activity on the interaction between PCSK9 and LDLR (in words) ([2]; listed as SEQ ID NO: 226): good inhibitory effects in vitro
Thr-Val-Phe-Thr-Ser-Gly-Arg-Cys-Thr-Lys-Ser-Ile-Pro-Pro-Ile-Cys-Phe-Trp-Glu-Glu-Tyr-Leu-Asp-Trp-Val (TVFTSGRCTKSIPPICFWEEYLDWV; disulfide 8-16 (inferred)) [PCSK9_9]		3143 ± 842 µg/mL	3516 ± 914 µg/mL	3409 ± 970 µg/mL	good inhibitory activity on the interaction between PCSK9 and LDLR	serum total cholesterol (TC) level after subcutaneous injection (in words) [1]: reduced serum TC level; serum total cholesterol (TC) level after subcutaneous injection (in words) ([1]; listed as SEQ ID NO: 218): excellent lowering lipid (total cholesterol) activities in vivo; TC 120 min [1]: 327.4 ± 90.4 mg/dL; inhibitory activity on the interaction between PCSK9 and LDLR (in words) ([2]; listed as SEQ ID NO: 218): good inhibitory effects in vitro
Thr-Val-Phe-Thr-Ser-Gly-Cys-Gly-Arg-Ala-Thr-Lys-Ser-Ile-Pro-Pro-Ile-Cys-Phe-Trp-Glu-Glu-Tyr-Leu-Asp-Trp-Val (TVFTSGCGRATKSIPPICFWEEYLDWV; disulfide 7-18 (inferred)) [PCSK9_7]		3398 ± 990 µg/mL	3618 ± 954 µg/mL	3461 ± 937 µg/mL	good inhibitory activity on the interaction between PCSK9 and LDLR	TC 120 min [1]: 337.6 ± 95.8 mg/dL; inhibitory activity on the interaction between PCSK9 and LDLR (in words) ([2]; listed as SEQ ID NO: 216): good inhibitory effects in vitro
Thr-Val-Phe-Thr-Ser-Gly-Ile-Cys-Thr-Ala-Ser-Ile-Pro-Pro-Ile-Cys-Gln-Trp-Glu-Glu-Tyr-Leu-Asp-Trp-Val (TVFTSGICTASIPPICQWEEYLDWV; disulfide 8-16 (inferred)) [PCSK9_9EC]	2789 ± 797 µg/mL	2744 ± 909 µg/mL	2676 ± 783 µg/mL	2657 ± 838 µg/mL	good inhibitory activity on the interaction between PCSK9 and LDLR	inhibitory activity on the interaction between PCSK9 and LDLR (in words) ([2]; listed as SEQ ID NO: 233): good inhibitory effects in vitro
Thr-Val-Phe-Thr-Ser-Gly-Phe-Cys-Thr-Tyr-Ser-Ile-Pro-Pro-Gln-Cys-Tyr-Gly-Trp-Glu-Glu-Tyr-Leu-Asp-Trp-Val (TVFTSGFCTYSIPPQCYGWEEYLDWV; disulfide 8-16 (inferred)) [PCSK9_9CH]	3727 ± 1154 µg/mL	4212 ± 753 µg/mL	3658 ± 664 µg/mL	2891 ± 710 µg/mL	good inhibitory activity on the interaction between PCSK9 and LDLR	inhibitory activity on the interaction between PCSK9 and LDLR (in words) ([2]; listed as SEQ ID NO: 232): good inhibitory effects in vitro
Thr-Val-Phe-Thr-Ser-Trp-Glu-Glu-Ala-Leu-Asp-Trp-Val-Cys-Gly-Arg-Ala-Thr-Lys-Ser-Ile-Pro-Pro-Ile-Cys-Phe (TVFTSWEEALDWVCGRATKSIPPICF; disulfide 14-25 (inferred)) [PCSK9_2]		3079 ± 1081 µg/mL	3178 ± 1039 µg/mL	3078 ± 1044 µg/mL	good inhibitory activity on the interaction between PCSK9 and LDLR	TC 120 min [1]: 295.5 ± 95.4 mg/dL; inhibitory activity on the interaction between PCSK9 and LDLR (in words) ([2]; listed as SEQ ID NO: 211): good inhibitory effects in vitro
